# According to patent publication US9726669B2, “Biomarkers for determining sensitivity of breast cancer cells to HER2-targeted therapy” (PIERIAN HOLDINGS, INC., priority 2009, dated 2017):
# Columns and labels:
# [1] = test system: ER-positive breast cancer; details: cited from earlier work
# [2] = test system: VEGF; details: with chemotherapy; patients with colorectal, breast, and lung cancers; cited from earlier work
# [3] = test system: MDA MB 468 cells; test: COPIA per-cell RTK activation in growth factor stimulated MDA-MB-468 cells; format: cell-based, human; details: MDA MB 468 cells stimulated with EGF
# Method: (§1) SKBr3, MDA-MB-468, T47D and BT474 cell lines were obtained from ATCC. Cells were grown in the following growth media in 100 mm tissue culture plates at 37° C. in 5% CO2: SKBr3 McCoy's 5A medium with 10% FBS, MDA-MB-468: DMEM, 10% FBS, BT474: DMEM, 10B FBS, T47D: RPMI 1640, 10% FBS, 0.2 U/ml bovine insulin. Cells were harvested at 70-80% confluency with gentle detachment process (trypsin treatment+subsequent inactivation) and were subsequently counted and washed with 1×PBS. Cell stimulation was performed with 100 uM EGF or 20 uM heregulin β or both in serum-free growth media for 5 min. Stimulated cells were washed with 1×PBS and then were lysed (lysis buffer: 50 mM Tris, pH 7.4, 150 mM NaCl, 1% Trition X-100 and 200 mM Na3VO4) and kept on ice for 30 min.
# (§2) Slides were first rinsed two times with TBST (50 mM Tris/150 mM NaCl/0.1% Tween-20, pH 7.2-7.4) before blocking them with 80 ul of Whatman Blocking Buffer 1 hr at RT or O/N at 4 C. After the blocking process, slides were washed 2 times with TBST. […]
# [4] = test system: T47D cells; test: COPIA RTK activation in growth factor stimulated T47D cells; format: cell-based, human; details: T47D cells stimulated with EGF or HRG
# Method: as §1, §2
# VEGF, sequence (P15692 207-311 limits assumed): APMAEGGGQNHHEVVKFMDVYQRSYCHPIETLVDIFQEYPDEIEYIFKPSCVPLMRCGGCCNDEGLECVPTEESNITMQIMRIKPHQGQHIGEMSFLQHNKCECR
molecule,measurement,setting,value
CC/C(=C(\c1ccccc1)c1ccc(OCCN(C)C)cc1)c1ccccc1 [Tamoxifen],reduction in the odds of recurrence and mortality,[1]; adjuvant therapy studies,40% to 50%
same,patients with temporary remission,[1]; patients with metastatic disease,30% to 50%
Bevacizumab,survival,[2],improve survival
"EGF: epidermal growth factor, stimulatory growth factor used to induce HER1 phosphorylation (NSDSECPLSHDGYCLHDGVCMYIEALDKYACNCVVGYIGERCQYRDLKWWELR; Epidermal growth factor; UniProt P01133 971-1023, looked up)",level of pHER1 per cell,[3],992.5 RFU/cell
same,HER1 activation,[4],resulted in both HER1 and HER2 activation
same,HER2 activation,[4],resulted in both HER1 and HER2 activation
